Literature values, collected in patent US11304932B2, “Diaryl and arylheteroaryl urea derivatives as modulators of the 5-HT2A serotonin receptor useful for the prophylaxis and treatment of hallucinations associated with a neurodegenerative disease” (Axovant Sciences GmbH, priority 2015, dated 2022).

How the values were obtained:
[1] = clozapine at low dose

SMILES | tolerability and PK/PD profile (daily dose of 80 mg, studies completed to date) | safety and tolerability profile (previous clinical studies to date, proposed dose range) | efficacy in psychotic symptoms associated with Parkinson's Disease [1]
COc1ccc(NC(=O)Nc2ccc(F)cc2F)cc1-c1c(Br)cnn1C [Nelotanserin, 1-[3-(4-bromo-2-methyl-2H-pyrazol-3-yl)-4-methoxy-phenyl]-3-(2,4-difluoro-phenyl)-urea] | favorable tolerability and PK/PD profile | acceptable safety and tolerability profile | –
CC(C)COc1ccc(CNC(=O)N(Cc2ccc(F)cc2)C2CCN(C)CC2)cc1 [pimavanserin, N-(4-fluorophenylmethyl)-N-(1-methylpiperidin-4-yl)-N′-(4-(2-methylpropyloxy)phenylmethyl)carbamide] | – | – | demonstrate efficacy
